From US12662469B2 (SIRONAX LTD, priority 2018, dated 2026)
Like-named read-outs stand apart in the source and are kept apart here.

System: Cell Necrosis
Experiment: Cell necrosis assay / cell viability assay (necrosis inhibitor activity)
Assay type: cell-based
Details: necrosis inhibitor activity, read-out: EC50
[1] = EC data for 14-191 extrapolated

SMILES	EC50 [1] [µM]	EC50 (compounds outside 14-191) [µM]
O=C(N1CC(Oc2ccc3oc(=O)[nH]c3c2)C1)N1N=CCC1c1cc(F)cc(F)c1 (stereo not drawn) [Compound 185]	0.001 to 1	
Cc1csc(N2CCN(C(=O)N3N=CCC3c3ccccc3)CC2)n1 (stereo not drawn) [Compound 105, (4-(4-methylthiazol-2-yl)piperazin-1-yl)(5-phenyl-4,5-dihydro-1H-pyrazol-1-yl)methanone]	1 to 10	
O=C(N1CC(Cc2ccc(Cl)cc2F)C1)N1N=CCC1c1ccccc1 (stereo not drawn) [Compound 51, (3-(4-chlor-2-fluorobenzyl)azetidin-1-yl)(5-phenyl-4,5-dihydro-1H-pyrazol-1-yl)methanone]	0.001 to 1	
O=C(N1CC(CN2Cc3cn[nH]c3C2)C1)N1N=CC[C@H]1c1cc(F)cc(F)c1 [Compound 375, (S)-(5-(3,5-difluorophenyl)-4,5-dihydro-1H-pyrazol-1-yl)(3-((4,6-dihydropyrrolo[3,4-c]pyrazol-5(1H)-yl)methyl)azetidin-1-yl)methanone]		0.001 to 1
N#Cc1ccc(F)c(O[C@@H]2CCN(C(=O)N3N=CC[C@H]3c3cc(F)cc(F)c3)C2)c1 [Compound 341, 3-(((R)-1-((S)-5-(3,5-difluorophenyl)-4,5-dihydro-1H-pyrazole-1-carbonyl)pyrrolidin-3-yl)oxy)-4-fluorobenzonitrile]		0.001 to 1
CC1CCCC(NC(=O)N2N=CCC2c2ccccc2)C1 (stereo not drawn) [Compound 11, N-(3-methylcyclohexyl)-5-phenyl-4,5-dihydro-1H-pyrazole-1-carboxamide]		0.001 to 1
COCCC1Oc2cc(F)c(OC3CN(C(=O)N4N=CC[C@H]4c4cc(F)cc(F)c4)C3)cc2N(C)C1=O (stereo partly drawn) [Compound 247]		0.001 to 1
C[C@H]1CN(c2ncc(Cl)cn2)CCN1C(=O)N1N=CCC1c1ccccc1 (stereo partly drawn) [Compound 113B, ((S)-4-(5-chloropyrimidin-2-yl)-2-methylpiperazin-1-yl)(5-phenyl-4,5-dihydro-1H-pyrazol-1-yl)methanone]	1 to 10	
O=C(CC1CCCC1)Nc1nc(N2CCN(C(=O)N3N=CC[C@H]3c3cc(F)cc(F)c3)CC2)ncc1F [Compound 290]		0.001 to 1
CNC(=O)c1nc(OC2CN(C(=O)N3N=CCC3c3cc(F)cc(F)c3)C2)oc1F (stereo not drawn) [Compound 172]	0.001 to 1	
O=C(N1CC[C@@H](Oc2ccnc3ccnn23)C1)N1N=CC[C@H]1c1cc(F)cc(F)c1 [Compound 242, ((S)-5-(3,5-difluorophenyl)-4,5-dihydro-1H-pyrazol-1-yl)((R)-3-(pyrazolo[1,5-a]pyrimidin-7-yloxy)pyrrolidin-1-yl)methanone]		0.001 to 1
Cc1cnc(OC2CN(C(=O)N3N=CCC3c3cc(F)cc(F)c3)C2)s1 (stereo not drawn) [Compound 176]	0.001 to 1	
N#Cc1csc(OC2CN(C(=O)N3N=CCC3c3cncc(F)c3)C2)n1 (stereo not drawn) [Compound 281, 2-((1-(5-(5-fluoropyridin-3-yl)-4,5-dihydro-1H-pyrazole-1-carbonyl)azetidin-3-yl)oxy)thiazole-4-carbonitrile]		0.001 to 1
CNc1nccc(O[C@@H]2CCN(C(=O)N3N=CC[C@H]3c3cc(F)cc(F)c3)C2)n1 [Compound 370]		0.001 to 1
O=C(N1CCN(c2ncc3cc[nH]c3n2)CC1)N1N=CC[C@H]1c1cc(F)cc(F)c1 [Compound 279, (S)-(4-(7H-pyrrolo[2,3-d]pyrimidin-2-yl)piperazin-1-yl)(5-(3,5-difluorophenyl)-4,5-dihydro-1H-pyrazol-1-yl)methanone]		0.001 to 1
COc1nc(N2CCN(C(=O)N3N=CC[C@H]3c3cc(F)cc(F)c3)CC2)ncc1F [Compound 271, (S)-(5-(3,5-difluorophenyl)-4,5-dihydro-1H-pyrazol-1-yl)(4-(5-fluoro-4-methoxypyrimidin-2-yl)piperazin-1-yl)methanone]		0.001 to 1
NC(=O)c1nccc(O[C@@H]2CCN(C(=O)N3N=CC[C@H]3c3cc(F)cc(F)c3)C2)n1 [Compound 364, 4-(((R)-1-((S)-5-(3,5-difluorophenyl)-4,5-dihydro-1H-pyrazole-1-carbonyl)pyrrolidin-3-yl)oxy)pyrimidine-2-carboxamide]		0.001 to 1
CNc1cccc(C=C2CN(C(=O)N3N=CC[C@H]3c3cc(F)cc(F)c3)C2)c1 [Compound 317, (S)-(5-(3,5-difluorophenyl)-4,5-dihydro-1H-pyrazol-1-yl)(3-(3-(methylamino)benzylidene)azetidin-1-yl)methanone]		0.001 to 1
N#Cc1cccc(O[C@@H]2CCN(C(=O)N3N=CC[C@H]3c3cc(F)cc(F)c3)C2)n1 [Compound 337, 6-(((R)-1-((S)-5-(3,5-difluorophenyl)-4,5-dihydro-1H-pyrazole-1-carbonyl)pyrrolidin-3-yl)oxy)picolinonitrile]		0.001 to 1
O=C(N1CC(C(F)(F)c2ccc(F)cc2F)C1)N1N=CCC1c1cc(F)cc(F)c1 (stereo not drawn) [Compound 135, (5-(3,5-difluorophenyl)-4,5-dihydro-1H-pyrazol-1-yl)(3-((2,4-difluorophenyl)difluoromethyl)azetidin-1-yl)methanone]	0.001 to 1	
O=C(c1ccco1)N1CCN(C(=O)N2N=CCC2c2ccccc2)CC1 (stereo not drawn) [Compound 94, (4-(furan-2-carbonyl)piperazin-1-yl)(5-phenyl-4,5-dihydro-1H-pyrazol-1-yl)methanone]	1 to 10	
O=C(N1CC(Oc2ccc3cc[nH]c3c2)C1)N1N=CC[C@H]1c1cc(F)cc(F)c1 [Compound 223, (S)-(3-((1H-indol-6-yl)oxy)azetidin-1-yl)(5-(3,5-difluorophenyl)-4,5-dihydro-1H-pyrazol-1-yl)methanone]		0.001 to 1
O=C(N1CC(Oc2ccccc2F)C1)N1N=CC[C@H]1c1cc(F)cc(F)c1 [Compound 144]	0.001 to 1	
CC(=O)N(C)c1cccc(OC2CN(C(=O)N3N=CCC3c3cc(F)cc(F)c3)C2)c1 (stereo not drawn) [Compound 230, N-(3-((1-(5-(3,5-difluorophenyl)-4,5-dihydro-1H-pyrazole-1-carbonyl)azetidin-3-yl)oxy)phenyl)-N-methylacetamide]		0.001 to 1
O=C(N1CC(Oc2nc3ccccc3s2)C1)N1N=CCC1c1cc(F)cc(F)c1 (stereo not drawn) [Compound 276, (3-(benzo[d]thiazol-2-yloxy)azetidin-1-yl)(5-(3,5-difluorophenyl)-4,5-dihydro-1H-pyrazol-1-yl)methanone]		0.001 to 1
O=C(N1CC(Oc2ccc(F)cc2F)C1)N1N=CC[C@H]1c1cc(F)cc(F)c1 [Compound 142]	0.001 to 1	
Nc1cccc(OC2CN(C(=O)N3N=CCC3c3cc(F)cc(F)c3)C2)c1 (stereo not drawn) [Compound 229, (3-(3-aminophenoxy)azetidin-1-yl)(5-(3,5-difluorophenyl)-4,5-dihydro-1H-pyrazol-1-yl)methanone]		0.001 to 1
O=C(N1CC[C@@H](Oc2ccccc2F)C1)N1N=CCC1c1ccccc1 (stereo partly drawn) [Compound 31, ((R)-3-(2-fluorophenoxy)pyrrolidin-1-yl)(5-phenyl-4,5-dihydro-1H-pyrazol-1-yl)methanone]	0.001 to 1	
CNC(=O)c1nc(OC2CN(C(=O)N3N=CC[C@H]3c3cc(F)cc(F)c3)C2)sc1Cl [Compound 273, (S)-5-chloro-2-((1-(5-(3,5-difluorophenyl)-4,5-dihydro-1H-pyrazole-1-carbonyl)azetidin-3-yl)oxy)-N-methylthiazole-4-carboxamide]		0.001 to 1
O=C(N1CC(=Cc2ccc(Cl)cc2Cl)C1)N1N=CC[C@H]1c1cc(F)cc(F)c1 [Compound 314, (S)-(3-(2,4-dichlorobenzylidene)azetidin-1-yl)(5-(3,5-difluorophenyl)-4,5-dihydro-1H-pyrazol-1-yl)methanone]		0.001 to 1
